Measured values taken from patent US6737383B1, “Herbicidal oxadiazolidines” (priority 1999, dated 2004).

Columns and labels:
[1] = tested on: pigweed; assay: Test B pre/postemergence pigweed; assay type: in vivo, Amaranthus retroflexus
Method in brief: (§1)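 Response is a visual 0-to-10 score relative to untreated plants, where 0 means no effect and 10 means complete control, taken twelve to sixteen days after application. Treatments went onto soil at planting and onto foliage of 1- to 4-leaf plants, using a surfactant-containing non-phytotoxic solvent.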

[2] = tested on: sugar beet; assay: Test B pre/postemergence sugar beet; assay type: in vivo, Beta vulgaris
Method in brief: as §1

[3] = tested on: smallflower flatsedge; assay: Test B flood test smallflower flatsedge; assay type: in vivo, Cyperus difformis
Method in brief: (§2)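 Plants were grown to the 2-leaf stage before treatment with test chemical, then held in a greenhouse for twelve to sixteen days. Injury was visually rated against untreated controls on a 0–10 scale, where 0 is no effect and 10 is complete control.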

[4] = tested on: surinam grass; assay: Test B pre/postemergence surinam grass; assay type: in vivo, Brachiaria decumbens
Method in brief: as §1

[5] = tested on: velvetleaf; assay: Test B pre/postemergence velvetleaf; assay type: in vivo, Abutilon theophrasti
Method in brief: as §1

[6] = tested on: duck salad; assay: Test B flood test duck salad; assay type: in vivo, Heteranthera limosa
Method in brief: as §2

[7] = tested on: bamyardgrass; assay: Test B flood test barnyardgrass; assay type: in vivo, Echinochloa crus-galli
Method in brief: as §2

[8] = tested on: soybean; assay: Test B pre/postemergence soybean; assay type: in vivo, Glycine max
Method in brief: as §1

[9] = tested on: rice; assay: Test B flood test rice; assay type: in vivo, Oryza sativa
Method in brief: as §2

[10] = tested on: blackgrass; assay: Test B pre/postemergence blackgrass; assay type: in vivo, Alopecurus myosuroides
Method in brief: as §1

[11] = tested on: rape; assay: Test B pre/postemergence rape; assay type: in vivo, Brassica napus
Method in brief: as §1

[12] = tested on: morningglory; assay: Test B pre/postemergence morningglory; assay type: in vivo, Ipomoea hederacea
Method in brief: as §1

[13] = tested on: giant foxtail; assay: Test B pre/postemergence giant foxtail; assay type: in vivo, Setaria faberii
Method in brief: as §1

[14] = tested on: bedstraw; assay: Test B pre/postemergence bedstraw; assay type: in vivo, Galium aparine
Method in brief: as §1

[15] = tested on: corn; assay: Test B pre/postemergence corn; assay type: in vivo, Zea mays
Method in brief: as §1

[16] = tested on: purple nutsedge; assay: Test B pre/postemergence purple nutsedge; assay type: in vivo, Cyperus rotundus
Method in brief: as §1

[17] = Preemergence, Rate 62 g/ha, scale of 0 to 10 where 0 is no effect and 10 is complete control
[18] = Preemergence, Rate 125 g/ha, 0 is no effect, 10 is complete control
[19] = Preemergence, Rate 250 g/ha, scale 0 to 10, 0 is no effect, 10 is complete control
[20] = Preemergence, Rate 500 g/ha, scale 0 to 10 (0 no effect, 10 complete control)
[21] = Rate 62 g/ha, Postemergence, scale of 0 to 10 where 0 is no effect and 10 is complete control
[22] = Rate 125 g/ha, Postemergence, scale 0 to 10
[23] = Rate 500 g/ha, Postemergence, scale 0 to 10
[24] = Rate 62 g/ha, headed Pre-emergence (flood test species), scale 0 to 10 (0 no effect, 10 complete control)
[25] = Rate 125 g/ha, Pre-emergence, flood test species, scale 0 to 10 where 0 is no effect and 10 is complete control
[26] = Rate 250 g/ha, Pre-emergence, flood-test species, scale 0 to 10, 0 is no effect, 10 is complete control
[27] = Rate 500 g/ha, headed Pre-emergence (flood test species), scale 0 to 10 (0 no effect, 10 complete control)

COc1nc(OC)nc(N(C(=O)n2oc(=O)n(C(C)C)c2=O)C(C)C)n1 [Compound 182]
0: Redroot pigweed plant response rating [1, 17] | Redroot pigweed plant response rating (0 to 10 scale) [1, 18] | Redroot pigweed plant response rating [1, 19] | Redroot pigweed plant response rating [1, 20] | Redroot pigweed plant response rating [1, 21] | Redroot pigweed plant response rating [1, 22] | Plant response rating (0 to 10; 0 is no effect, 10 is complete control), Redroot pigweed ([1]; Rate 250 g/ha, Postemergence) | Redroot pigweed plant response rating [1, 23] | Sugarbeets plant response rating [2, 17] | Sugarbeets plant response rating (0 to 10 scale) [2, 18] | Sugarbeets plant response rating [2, 19] | Sugarbeets plant response rating [2, 20] | Sugarbeets plant response rating [2, 21] | Sugarbeets plant response rating [2, 22] | Plant response rating (0 to 10; 0 is no effect, 10 is complete control), Sugarbeets ([2]; Rate 250 g/ha, Postemergence) | Sugarbeets plant response rating [2, 23] | S. Flatsedge plant response rating [3, 24] | S. Flatsedge plant response rating [3, 25] | S. Flatsedge plant response rating [3, 26] | S. Flatsedge plant response rating ([3]; Rate 500 g/ha, Pre-emergence, flood test species, scale 0 to 10 (0 no effect, 10 complete control)) | B. signalgrass plant response rating [4, 17] | B. signalgrass plant response rating (0 to 10 scale) [4, 18] | B. signalgrass plant response rating [4, 19] | B. signalgrass plant response rating [4, 20] | B. signalgrass plant response rating [4, 21] | B. signalgrass plant response rating ([4]; Rate 125 g/ha, Postemergence, scale 0 (no effect) to 10 (complete control)) | Plant response rating, B. signalgrass ([4]; Rate 250 g/ha, Postemergence, scale 0 to 10, 0 is no effect, 10 is complete control) | B. signalgrass plant response rating ([4]; Rate 500 g/ha, Postemergence, scale 0 to 10, 0 no effect, 10 complete control) | Velvetleaf plant response rating [5, 17] | Velvetleaf plant response rating [5, 19] | Velvetleaf plant response rating [5, 20] | Velvetleaf plant response rating [5, 22] | Plant response rating (0 to 10; 0 is no effect, 10 is complete control), Velvetleaf ([5]; Rate 250 g/ha, Postemergence) | Velvetleaf plant response rating [5, 23] | Ducksalad plant response rating [6, 24] | Ducksalad plant response rating [6, 25] | Ducksalad plant response rating [6, 26] | Plant response rating, Ducksalad [6, 27] | Barnyardgrass plant response rating [7, 24] | Barnyardgrass plant response rating [7, 25] | Barnyardgrass plant response rating [7, 26] | Plant response rating, Barnyardgrass [7, 27] | Soybean plant response rating [8, 17] | Soybean plant response rating (0 to 10 scale) [8, 18] | Soybean plant response rating [8, 19] | Soybean plant response rating [8, 20] | Soybean plant response rating [8, 21] | Soybean plant response rating [8, 22] | Plant response rating (0 to 10; 0 is no effect, 10 is complete control), Soybean ([8]; Rate 250 g/ha, Postemergence) | Soybean plant response rating [8, 23] | Rice plant response rating [9, 24] | Rice plant response rating [9, 25] | Rice plant response rating [9, 26] | Plant response rating, Rice [9, 27] | Blackgrass plant response rating [10, 17] | Blackgrass plant response rating (0 to 10 scale) [10, 18] | Blackgrass plant response rating [10, 19] | Blackgrass plant response rating [10, 20] | Blackgrass plant response rating [10, 21] | Blackgrass plant response rating [10, 22] | Plant response rating (0 to 10; 0 is no effect, 10 is complete control), Blackgrass ([10]; Rate 250 g/ha, Postemergence) | Blackgrass plant response rating [10, 23] | Rape plant response rating [11, 17] | Rape plant response rating (0 to 10 scale) [11, 18] | Rape plant response rating [11, 19] | Rape plant response rating [11, 20] | Rape plant response rating [11, 21] | Rape plant response rating [11, 22] | Plant response rating (0 to 10; 0 is no effect, 10 is complete control), Rape ([11]; Rate 250 g/ha, Postemergence) | Rape plant response rating [11, 23] | Morningglory plant response rating [12, 17] | Morningglory plant response rating (0 to 10 scale) [12, 18] | Morningglory plant response rating [12, 19] | Morningglory plant response rating [12, 20] | Morningglory plant response rating [12, 21] | Morningglory plant response rating [12, 22] | Plant response rating (0 to 10; 0 is no effect, 10 is complete control), Morningglory ([12]; Rate 250 g/ha, Postemergence) | Morningglory plant response rating [12, 23] | Giant foxtail plant response rating [13, 17] | Giant foxtail plant response rating (0 to 10 scale) [13, 18] | Giant foxtail plant response rating [13, 19] | Giant foxtail plant response rating [13, 20] | Giant foxtail plant response rating [13, 21] | Giant foxtail plant response rating [13, 22] | Plant response rating (0 to 10; 0 is no effect, 10 is complete control), Giant foxtail ([13]; Rate 250 g/ha, Postemergence) | Giant foxtail plant response rating [13, 23] | Bedstraw plant response rating [14, 17] | Bedstraw plant response rating (0 to 10 scale) [14, 18] | Bedstraw plant response rating [14, 19] | Bedstraw plant response rating [14, 20] | Bedstraw plant response rating [14, 21] | Bedstraw plant response rating [14, 22] | Plant response rating (0 to 10; 0 is no effect, 10 is complete control), Bedstraw ([14]; Rate 250 g/ha, Postemergence) | Bedstraw plant response rating [14, 23] | Corn plant response rating [15, 17] | Corn plant response rating (0 to 10 scale) [15, 18] | Corn plant response rating [15, 19] | Corn plant response rating [15, 20] | Corn plant response rating [15, 21] | Corn plant response rating [15, 22] | Plant response rating (0 to 10; 0 is no effect, 10 is complete control), Corn ([15]; Rate 250 g/ha, Postemergence) | Corn plant response rating [15, 23] | Nutsedge plant response rating [16, 17] | Nutsedge plant response rating (0 to 10 scale) [16, 18] | Nutsedge plant response rating [16, 19] | Nutsedge plant response rating [16, 20] | Nutsedge plant response rating [16, 21] | Nutsedge plant response rating [16, 22] | Plant response rating (0 to 10; 0 is no effect, 10 is complete control), Nutsedge ([16]; Rate 250 g/ha, Postemergence) | Nutsedge plant response rating [16, 23]
